In patent US5318980A, “Sulphonylbenzyl-substituted imidazoles” (Bayer Aktiengesellschaft, priority 1992, dated 1994):

Tested on: isolated aortic rings of rabbits, contraction induced by AII
Experiment: Inhibition of angiotensin II-induced contraction on isolated aortic rings of rabbits in vitro
Assay type: cell-based, rabbit
Settings: Oryctolagus cuniculus, 3rd=submaximum agonist concentration, read-out: IC50 against contractions induced by AII
Method: Rabbits of both sexes are stunned by a blow to the neck and exsanguinated or, where appropriate, anaesthetised with Nembutal (about 60-80 mg/kg i.v.) and sacrificed by opening the thorax. The thoracic aorta is removed, freed from attached connective tissue and divided into ring segments 1.5 mm wide, and the segments are introduced individually, under an initial load of about 3.5 g, into 10 ml organ baths containing carbogen-gassed KrebsHenseleit nutrient solution thermostatically controlled at 37° C. and having the following composition: 119 mmol/l of NaCl; 2.5 mmol/l of CaCl2 ×2 H2 O; 1.2 mmol/l to KH2 PO4; 10 mmol/l of glucose; 4.8 mmol/l of KCl; 1.4 mmol/l of MgSO4 ×7 H2 O and 25 mmol/l of NaHCO3.
The contractions are recorded isometrically by Statham UC2 cells via a bridge amplifier (ifd Mulheim or DSM Aalen), and are digitalised and evaluated by means of an A/D converter (system 570, Keithley Munich). The agonist dose/effect curves (DEC) are plotted hourly. For each DEC, 3 or 4 individual concentrations are applied to the baths at intervals of 4 minutes. The DEC and subsequent wash-out cycles (16 times for about 5 sec/min each with the above nutrient solution) are followed by a 28-minute resting or incubation phase, within which the contractions as a rule reach the starting value again.
The level of the 3rd DEC in the normal case is used as a reference parameter for evaluating the test substance which is to be investigated in subsequent passes and, for the subsequent DECs, is applied to the baths at the start of the incubation time in a dosage which increases each time. Each aortic ring is stimulated with always the same agonist over the entire day.
Agonists and their standard concentrations (application
The effect in each case at the 3rd=submaximum agonist concentration is taken as a basis for calculation of the IC50 (concentration at which the substance to be investigated causes 50% inhibition).

Structure (SMILES)	IC50 [nM]
CCCCc1nc(Cl)c(CO)n1Cc1ccc(S(=O)(=O)N2CCC[C@H]2C(=O)O)cc1 [Example 21]	250
CCCCc1nc(Cl)c(C(=O)O)n1Cc1ccc(S(=O)(=O)N2CCCCC2C(=O)O)cc1 (stereo not drawn) [Example 25]	5
CCCCc1nc(Cl)c(CO)n1Cc1ccc(S(=O)(=O)N2CCC[C@H]2C(=O)O)cc1Cl [Example 19]	44
CCCCc1nc(Cl)c(C(=O)O)n1Cc1ccc(S(=O)(=O)N2CCC[C@H]2C(=O)O)cc1 [Example 15]	202
CCCCc1nc(Cl)c(C(=O)O)n1Cc1ccc(S(=O)(=O)N2CCCCC2C(=O)O)cc1Cl (stereo not drawn) [Example 16]	309

Target: T1, Angiotensin II receptor (Bos taurus, UniProt P25104)
T1 construct: carried out on partly purified membrane fractions of bovine AC with radioactive angiotensin II; from tissue; host or cells: bovine adrenal cortex, freed from medulla, partly purified membrane fractions
T1 sequence (P25104 1-359): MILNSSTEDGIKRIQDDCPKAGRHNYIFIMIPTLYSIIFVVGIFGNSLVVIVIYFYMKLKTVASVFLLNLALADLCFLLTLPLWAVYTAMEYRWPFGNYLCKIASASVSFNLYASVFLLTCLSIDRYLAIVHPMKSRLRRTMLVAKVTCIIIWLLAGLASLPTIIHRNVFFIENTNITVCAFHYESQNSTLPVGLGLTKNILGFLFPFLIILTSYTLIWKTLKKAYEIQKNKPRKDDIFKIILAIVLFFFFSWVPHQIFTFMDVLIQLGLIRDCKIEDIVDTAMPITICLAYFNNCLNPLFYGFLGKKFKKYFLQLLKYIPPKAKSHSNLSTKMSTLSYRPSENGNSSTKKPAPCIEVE
Experiment: Interaction with the angiotensin II receptor on membrane fractions of the adrenal cortex (cattle), 3H-angiotensin II bonding
Assay type: binding
Settings: bovine adrenal cortex membranes; 3H-angiotensin II (3-5 nM); 60 minutes at room temperature
Method: Adrenal cortices from cattle (AC), which are freshly removed and carefully freed from medulla from the capsule, are comminuted to a coarse membrane homogenate in sucrose solution (0.32M) with the aid of an Ultra-Turrax (Janke & Kunkel, Staufen i.B.), and the homogenate is partly purified to membrane fractions in two centrifugation steps.
The investigations on receptor bonding are carried out on partly purified membrane fractions of bovine AC with radioactive angiotensin II in an assay volume of 0.25 ml, which specifically contains the partly purified membranes (50-80 μg), ^3 H-angiotensin II (3-5 nM), test buffer solution (50 mM Tris, pH 7.2), 5 mM MgCl2 and the substances to be investigated. After an incubation time of 60 minutes at room temperature, the non-bonded radioactivity of the samples is separated off by means of moistened glass fibre filters (Whatman GF/C), and, after the protein has been washed with ice-cold buffer solution (50 mM Tris/HCl, pH 7.4, 5% PEG 6000), the radioactivity bonded is measured […] in a scintillation cocktail. The raw data were analysed with computer programs to give Ki and IC50 values (Ki : IC50 values corrected for the radioactivity used; IC50 values: concentration at which the substance to be investigated causes 50% inhibition of specific bonding of the radioligand).

Structure (SMILES)	Ki [nM]
CCCCc1nc(Cl)c(C(=O)O)n1Cc1ccc(S(=O)(=O)N2CCCCC2C(=O)OC(C)(C)C)cc1Cl (stereo not drawn) [Example 18]	200
CCCCc1nc(Cl)c(C(=O)O)n1Cc1ccc(S(=O)(=O)N2CCC[C@H]2C(=O)O)cc1 [Example 15]	400

Tested on: smooth muscle cells
Experiment: Inhibition of the proliferation of smooth muscle cells (3H-thymidine incorporation)
Assay type: cell-based, rats or pigs
Settings: at 10^-6 M (so in the source); growth stimulated with AII, serum or other factors
Method: Smooth muscle cells which are obtained from the aortas of rats or pigs by the media explantate technique are used to determine the antiproliferative action of the compounds [R. Ross, J. Cell. Biol. 50, 172, 1971]. The cells are sown in suitable culture dishes, as a rule 24-hole plates, and cultured for 2-3 days in medium 199 containing 7.5% of FCS and 7.5% of NCS, 2 mM of L-glutamine and 15 mM of HEPES, pH 7.4, in 5% CO2 at 37° C. Thereafter, the cells are synchronised by serum withdrawal for 2-3 days and then stimulated to growth with AII, serum or other factors. Test compounds are added at the same time. After 16-20 hours, 1 μCi of ^3 H-thymidine is added, and after a further 4 hours, the incorporation of this substance into the TCA-precipitatable DNA of the cells is determined.

Structure (SMILES)	% inhibition at 10^6 M [%]
CCCCc1nc(Cl)c(CO)n1Cc1ccc(S(=O)(=O)N2CCCCC2)cc1 [Example 11]	20
CCCCc1nc(Cl)c(CO)n1Cc1ccc(S(=O)(=O)N2CCC[C@H]2C(=O)OC(C)(C)C)cc1Cl [Example 12]	70
